Test results: patent publication US6512004B2, “Promoters of neural regeneration” (The Regents of the University of California, priority 1998, dated 2003)

What was measured:
Assay type in all cases: cell-based
[1] = tested on: growth cones of the cultured Xenopus spinal neuron; test: Growth cone turning in a Sema III gradient; details: for growth cone turning response in Sema III gradient with agent in culture medium: Sema III 50 μg/ml in the pipette, 8-br-cGMP 100 μM, Sp-cGMPS 10 μM, PP-9 10 μM, SNAP 300 μM, Rp-cGMPS 10 μM, cAMPS analogues 20 μM, one-hour exposure
Procedure: Collapsin-1/Semaphorin III/D (Sema III), a diffusible member of the semaphorin family can repel or cause collapse of growth cones in culture (6). […] We analyzed the effect of a microscopic gradient of Sema III on growth cones of the cultured Xenopus spinal neuron (8). Sema III-containing saline was applied in pulses from a micropipette positioned 100 μm from the center of the growth cone and at a 45° angle with respect to the original direction of neurite extension. […] The repulsive response was dose-dependent with a minimal response occurring at an effective concentration of about 10 ng/ml at the growth cone (8). Heat-inactivated Sema III was ineffective (FIG. 1A). […] The rate of neurite extension was unaffected by the presence of the Sema III gradient.
(§1) 8. Dissociated Xenopus spinal neurons were prepared as described (4,5). Isolated spinal neurons were used for experiments at room temperature (22°-24° C.) 14-22 hour after plating. Sema III was purified from conditioned medium of stable 293-EBNA cell lines secreting Sema III-AP as described (17). To inactivate Sema III activity, the supernatant containing Sema III-AP was heated at 85° C. for 45 minutes [J. Fan and J. A. Raper, Neuron 14, 263 (1995)]. Microscopic gradients of diffusible factors were produced as described (4,5). The average concentration of factors at the growth cone was about 10^3-fold lower than that in the pipette [A. M. Lohof, M. Quilian, Y. Dan and M-m. Poo, J. Neurosci. 12, 1253 (1992)], and a concentration gradient of 5-10% was created across a growth cone 10 μm wide, 100 μm away from the tip of the ejecting pipette. The original direction of neurite growth was defined by the last 10-μm segment of the neurite. The turning angle was defined by the angle between the original direction of neurite extension and a straight line connecting the positions of the growth cone at the onset and the end of the one hour period. Only growth cones with a net extension >5 μm over the one-hour period were scored.
10. M. A. Schwarzschild and R. E. Zigmond, J. Neurochem. 56, 400 (1991). Pharmacological agents were added to the culture medium at least 30 minutes before the gradient was applied and were present during the experiments. The final concentrations of pharmacological agents in the medium were listed.

[2] = tested on: rat dorsal root ganglion (DRG) axons; test: Growth cone collapse assay with Sema III on DRG explants
Procedure: 21. DRG explants derived from E14 rat embryos were cultured with 25 ng/ml NGF on plates precoated with poly-D-lysine and laminin for 20 hours before experiments as described (17). Pharmacological agents were added an hour before the collapse assay. The collapse assay was performed on sensory axons from these explants using Sema III-AP-containing medium essentially as described (17). For visualization, growth cones were stained with rhodamine-phalloidin, then washed and mounted.

[3] = tested on: growth cones of Xenopus spinal neurons; test: Growth cone turning in a rMAG gradient
Text: To examine whether the responses to other repulsive factors can be converted, we studied myelin-associated glycoprotein (MAG), a component of myelin and an inhibitor of axonal regeneration (22). […] However, the repulsion by rMAG was not affected by the addition of 8-br-cGMP. […] Thus the turning response induced by rMAG can be modulated by cAMP-dependent activities. This is reminiscent of the turning responses induced by gradients of BDNF and netrin-1 (4,5), although the latter factors are normally attractive and are converted to repulsive by inhibition of cAMP-dependent activities.
as §1
10. M. A. Schwarzschild and R. E. Zigmond, J. Neurochem. 56, 400 (1991). Pharmacological agents were added to the culture medium at least 30 minutes before the gradient was applied and were present during the experiments. […]

`CC(=O)N[C@H](C(=O)O)C(C)(C)SN=O` (racemic) [S-Nitroso-N-acetylpenicillamine] was tested, and the “growth cone turning response in Sema III gradient with agent in culture medium” value [1] was “abolished the repulsive turning response without causing a significant attractive response”.

In the case of `Nc1ncnc2c1ncn2[C@@H]1O[C@@H]2COP(O)(=S)O[C@H]2[C@H]1O` (some centres unmarked) [Sp-cAMPS], the “inhibition of the collapsing activity of Sema III” value ([2]; agent added an hour before the collapse assay) is reported as “not”, the “effect of agent alone on growth cones” value ([2]; without Sema III) is reported as “no detectable effect” and the “conversion of the Sema III turning response in the presence of 8-br-cGMP” value ([1]; 8-br-cGMP 100 μM plus Rp-cAMPS or Sp-cAMPS 20 μM) is reported as “not”. For the same molecule, the “growth cone turning response in rMAG gradient with agent in medium” value ([3]; rMAG 150 μg/ml in the pipette, 8-br-cGMP 100 μM, Sp-cAMPS 20 μM) was “converted to attraction”.

In the case of `Nc1nc2c(ncn2[C@@H]2O[C@@H]3COP(O)(=S)O[C@H]3[C@H]2O)c(=O)[nH]1` (some centres unmarked) [Sp-cGMPS], the “growth cone turning response in Sema III gradient with agent in culture medium” value [1] is reported as “nearly all growth cones turned toward rather than away from the pipette”.

B1: rMAG: recombinant protein consisting of the extracellular domain of MAG (protein, UniProt P07722 20-516, looked up)
extracellular domain: GHWGAWMPSSISAFEGTCVSIPCRFDFPDELRPAVVHGVWYFNSPYPKNYPPVVFKSRTQVVHESFQGRSRLLGDLGLRNCTLLLSTLSPELGGKYYFRGDLGGYNQYTFSEHSVLDIINTPNIVVPPEVVAGTEVEVSCMVPDNCPELRPELSWLGHEGLGEPTVLGRLREDEGTWVQVSLLHFVPTREANGHRLGCQAAFPNTTLQFEGYASLDVKYPPVIVEMNSSVEAIEGSHVSLLCGADSNPPPLLTWMRDGMVLREAVAESLYLDLEEVTPAEDGIYACLAENAYGQDNRTVELSVMYAPWKPTVNGTVVAVEGETVSILCSTQSNPDPILTIFKEKQILATVIYESQLQLELPAVTPEDDGEYWCVAENQYGQRATAFNLSVEFAPIILLESHCAAARDTVQCLCVVKSNPEPSVAFELPSRNVTVNETEREFVYSERSGLLLTSILTLRGQAQAPPRVICTSRNLYGTQSLELPFQGAHRLMWAKIGP
modifications: extracellular domain
notes: recombinant protein consisting of the extracellular domain of MAG
With B1 the “growth cone turning induced by the rMAG gradient” value ([3]; normal medium) was “repelled growth cones”.

B2: Sema III: a diffusible member of the semaphorin family, purified from conditioned medium of 293-EBNA cell lines (protein, UniProt Q14563 21-771, looked up)
Semaphorin-3A: NYQNGKNNVPRLKLSYKEMLESNNVITFNGLANSSSYHTFLLDEERSRLYVGAKDHIFSFDLVNIKDFQKIVWPVSYTRRDECKWAGKDILKECANFIKVLKAYNQTHLYACGTGAFHPICTYIEIGHHPEDNIFKLENSHFENGRGKSPYDPKLLTASLLIDGELYSGTAADFMGRDFAIFRTLGHHHPIRTEQHDSRWLNDPKFISAHLISESDNPEDDKVYFFFRENAIDGEHSGKATHARIGQICKNDFGGHRSLVNKWTTFLKARLICSVPGPNGIDTHFDELQDVFLMNFKDPKNPVVYGVFTTSSNIFKGSAVCMYSMSDVRRVFLGPYAHRDGPNYQWVPYQGRVPYPRPGTCPSKTFGGFDSTKDLPDDVITFARSHPAMYNPVFPMNNRPIVIKTDVNYQFTQIVVDRVDAEDGQYDVMFIGTDVGTVLKVVSIPKETWYDLEEVLLEEMTVFREPTAISAMELSTKQQQLYIGSTAGVAQLPLHRCDIYGKACAECCLARDPYCAWDGSACSRYFPTAKRRTRRQDIRNGDPLTHCSDLHHDNHHGHSPEERIIYGVENSSTFLECSPKSQRALVYWQFQRRNEERKEEIRVDDHIIRTDQGLLLRSLQQKDSGNYLCHAVEHGFIQTLLKVTLEVIDTEHLEELLHKDDDGDGSKTKEMSNSMTPSQKVWYRDFMQLINHPNLNTMDEFCEQVWKRDRKQRRQRPGHTPGNSNKWKHLQENKKGRNRRTHEFERAPRSV
B2 was tested, and the “rate of neurite extension” value ([1]; in the presence of the Sema III gradient) was “unaffected”, the “effective concentration at the growth cone for minimal repulsive response” value ([1]; normal medium) was “about 10 ng/ml” and the “growth cone turning induced by the factor gradient” value ([1]; normal medium, pipette 100 μm from growth cone, 45° angle) was “Most growth cones grew away from the pipette”. For the same molecule, the “collapse of growth cones” value ([1]; up to 100 μg/ml of Sema III in the pipette) was “No obvious collapse of growth cones”.
